Results from PMC6773697, “Antileukemic activity of novel adenosine derivatives” (Scientific Reports, 2019).

What was measured:
[1] = system: HL-60 cells; assay: Comet assay with proteinase K post-treatment (DNA-protein cross-links), HL-60; type: cell-based, human; details: for DNA damage after proteinase K: HL-60, 24 h
Protocol: (§1) Single cell gel electrophoresis (comet assay) was used to detect alkali labile sites, single and double DNA strand breaks, and cross-links induced by genotoxic agents. After electrophoresis and gel staining with 4,6-diamidino-2-phenylindole (DAPI), the released DNA was visible under a fluorescence microscope as a characteristic comet tail. The cells were plated on 24-well plates (20,000 cells/mL) and treated with CLA, CLA-FMOR, CLA-FPIP, or CLA-FPIR at the indicated concentrations for 2, 24, and 48 h at 37 °C. Some cells were preincubated with an ATR kinase inhibitor (VE-821) for 1 h at 37 °C before adding the tested compounds. Next, cells were collected into Eppendorf tubes and rinsed with PBS. Then, cells were suspended in 0.75% low melting point (LMP) agarose dissolved in PBS (pH 7.4) and placed on microscope slides precoated with 0.5% normal melting point (NMP) agarose. Subsequently, the slides were treated with a cooled lysis buffer (2.5 M NaCl, 100 mM EDTA, 10 mM Tris, 1% Triton X-100, pH 9.0) for 1–24 h at 4 °C. Then, slides were placed in developing buffer (300 mM NaOH, 1 mM EDTA) for 20 min. Electrophoresis was performed in […] (30 mM NaOH, 1 mM EDTA) at 29 V and 30 mA for 20 min. The samples were stained with DAPI ([…]). The slides were stored in a wet chamber at 4 °C and analyzed under a fluorescence microscope. Fifty randomly selected cells from each slide were measured using image analysis (Nikon, Japan) attached to a COHU 4910 video camera, which was equipped with a UV-1 filter block consisting of an excitation filter (359 nm) and a barrier filter (461 nm) connected to the image analysis system Lucia-Comet v. 4.51 (Czech Republic)[41]. In the samples preincubated with VE-821, the level of DNA damage associated with the ATR kinase was determined.
Because cross-links can be undetectable in the alkaline comet assay, a variant of this method including post-treatment with proteinase K (Cat no: P2308) was used. Proteinase K digests peptide bonds, releasing the cross-linked DNA […] the DNA-protein complexes without altering the structure of the DNA-DNA complexes to distinguish them. After lysis, the slides were washed three times in TE buffer (10 mM Tris, pH 10, 1 mM EDTA). The cells were treated with aliquots of proteinase K (60 µL per slide; 1 mg/mL TE buffer) for 1 h at 37 °C in a wet chamber. Further steps of the comet assay were performed as described above.

[2] = system: THP-1 cells; assay: XTT cytotoxicity assay, THP-1; type: cell-based, human; details: for IC50: Homo sapiens, THP-1, XTT, 48 h incubation, none in the picture; for sensitivity of cells to the compound: THP-1, XTT
Protocol: (§2) The cytotoxic activity test with XTT (sodium 3′-[1-(phenylaminocarbonyl)- 3,4-tetrazolium]-bis (4-methoxy-6-nitro) benzene sulfonic acid hydrate) is a colorimetric method for determining the parameters associated with cell viability. The cytotoxicity in HL-60, THP-1, MOLT-4, and HMEC-1 cells was measured by the XTT assay. XTT is reduced to formazan by the mitochondrial respiratory chain oxidoreductase, which is active only in living cells. The formed crystals of formazan are dissolved directly in the medium. The amount of product is proportional to the number of live cells.
(§3) The IC50 parameter was determined by dividing the mean absorbance values of the drug-treated samples by those of control cells and defined as the drug concentration causing a 50% reduction of cell viability relative to the control. It was calculated using the “Ed50v10(1)” computer application. Cells were plated in 96-well plates at a density of 15 × 10^3 cells in 100 μL culture medium. Drugs were then added at a concentration range of 10 nM–10,000 nM to obtain a final volume of the mixture of 150 μL. Some cells were preincubated with an ATR kinase inhibitor (VE-821) for 1 h at 37 °C before adding the tested compounds. In this case drugs were added at a concentration range of 10 nM–300 nM. For the XTT assay, after 48 h of incubation, the plates were centrifuged at 1,500 rpm for 10 min at 4 °C, the culture medium was removed, and the cells were suspended in 100 mm^3 of HBSS (Hank’s Buffered Salt Solution) containing 140 mM NaCl, 5 mM KCl, 0.8 mM MgCl2, 1.8 mM CaCl2, 1 mM Na2HPO4, 10 mM HEPES (N- (2-hydroxyethyl) -piperazine-N′- (2-ethanesulfonic acid), and 1% glucose at pH 7.4. Then, 50 μL of XTT solution (in PBS) was added to a final concentration of […]. In addition, PMS (phenazine methosulphate) - methyl dibenzo-N-methylpyrazine sulphate (0.383 mg/cm^3) was used, which was combined with XTT solution at a ratio of 1:50. After 4 h of incubation with XTT, absorbance was measured at a wavelength λ = 450 nm and reference wavelength λ = 690 nm with a microplate reader (BioTek, Winooski, VT, USA).

[3] = system: dCK in THP-1 cells; assay: Deoxycytidine kinase activity, THP-1; type: cell-based, human; details: THP-1, 24 h incubation
Protocol: Deoxycytidine kinase activity was measured in accordance with the manufacturer’s protocol. The cells, at final concentration were plated at 1 × 10^6 cells per 24-well plates and cultured with the tested compounds for 24 h. Some cells were preincubated with an ATR kinase inhibitor (VE-821) for 1 h at 37 °C before adding the tested compounds. After drug treatment, the cells were washed with PBS and resuspended in an ice-cold cytosol extraction buffer containing 1 mM phenylmethylsulfonyl fluoride (PMSF) and a protease inhibitor cocktail. The cell lysate was centrifuged at 10,000 × g for 30 min at 4 °C. The protein concentration was determined using the Bradford method. The supernatant (cytosolic fraction) was collected and stored at −80 °C. The clarified cytoplasm extracts, dCK standards, and blank control were added to the appropriate microtiter plate wells with a biotin-conjugated polyclonal antibody prepared specifically for dCK. Avidin conjugated to horseradish peroxidase (HRP) was added to each microplate well and incubated. Then, a TMB substrate solution was added to the plate. […] The enzyme-substrate reaction was terminated by addition of a sulfuric acid solution. The color change was measured spectrophotometrically at a wavelength of 450 nm using a microplate reader (BioTek).

[4] = system: HL-60 cells; assay: XTT cytotoxicity assay, HL-60; type: cell-based; details: Homo sapiens, 48 h incubation, none in the picture
Protocol: as §2, §3

[5] = system: HMEC-1 cells; assay: XTT cytotoxicity assay, HMEC-1 (normal dermal endothelium); type: cell-based; details: Homo sapiens, 48 h incubation, none in the picture
Protocol: as §2, §3

[6] = system: leukemic cells (HL-60, MOLT-4, THP-1); assay: XTT cytotoxicity assay, leukemic cells overall; type: cell-based, human; details: XTT, leukemic cell lines
Protocol: as §2, §3

[7] = system: THP-1 cells; assay: Comet assay with proteinase K post-treatment (DNA-protein cross-links), THP-1; type: cell-based, human
Protocol: as §1
Because cross-links can be undetectable in the alkaline comet assay, a variant of this method including post-treatment with proteinase K (Cat no: P2308) was used. […]

Compound	DNA damage after proteinase K [1]	DNA-protein cross-links after proteinase K ([1]; HL-60, starting at 2 h of incubation)	IC50 [2]	sensitivity of cells to the compound [2]	dCK activity [3]	IC50 [4]	IC50 [5]	cytotoxicity (in words) [6]	DNA damage in the tail after proteinase K ([7]; THP-1, 2–48 h)	DNA damage in the tail after proteinase K ([7]; THP-1, 24 h)
OC[C@H]1O[C@@H](n2cnc3c(N=CN4CCOCC4)nc(Cl)nc32)C[C@@H]1O [CLA-FMOR, [6-deamino-6-(N′, N′-3′-oxa-1′, 5′-pentamethyleneformamidine)] cladribine]	increased the DNA damage	increased the level of cross-links	41 nM	highest sensitivity	highest dCK activity	122 nM	287 nM	high cytotoxic activity	increased	
OC[C@H]1O[C@@H](n2cnc3c(N=CN4CCCC4)nc(Cl)nc32)C[C@@H]1O [CLA-FPIR, [6-deamino-6-(N′, N′-l′, 4′-tetramethyleneformamidino)] cladribine]	increased the DNA damage		36 nM	highest sensitivity	highest dCK activity	135 nM	231 nM	high cytotoxic activity		increased
